Results as given in PubChem BioAssay AID192 (DTP/NCI, 2004).
Several values for one entry are separate records, joined by “and”; a condition that tells them apart may be missing. Identical values can stand only once. Toxic doses and inconclusive results are not listed. Rule for the calls: active = survival T/C of 150% or more; inactive = T/C below 125% in these data.

Tested on: BDF1 mice, B16 melanoma ip, median survival T/C
Experiment: NCI In Vivo Anticancer Drug Screen. Data for tumor model B16 Melanoma (intraperitoneal) in B6D2F1 (BDF1) mice
Conditions: endpoint: median survival time, higher = longer survival
Summary of the method: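 Read-out: survival or tumor size, given as treated/control ratio. Controls received vehicle only; animals bore transplantable tumors.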

[1] = dose: 100.0 mg/kg/injection, schedule: Q01DX009 (ip), vehicle: Klucel (hydroxypropylcellulose) (HPC)
[2] = dose: 200.0 mg/kg/injection, schedule: Q01DX009 (ip), vehicle: Klucel (hydroxypropylcellulose) (HPC)
[3] = dose: 50.0 mg/kg/injection, schedule: Q01DX009 (ip), vehicle: saline with Tween-80
[4] = dose: 100.0 mg/kg/injection, schedule: Q01DX009 (ip), vehicle: saline with Tween-80
[5] = dose: 12.5 mg/kg/injection, schedule: Q01DX009 (ip), vehicle: Klucel (hydroxypropylcellulose) (HPC)
[6] = dose: 25.0 mg/kg/injection, schedule: Q01DX009 (ip), vehicle: Klucel (hydroxypropylcellulose) (HPC)
[7] = dose: 50.0 mg/kg/injection, schedule: Q01DX009 (ip), vehicle: Klucel (hydroxypropylcellulose) (HPC)
[8] = dose: 25.0 mg/kg/injection, schedule: Q01DX009 (ip), vehicle: saline with Tween-80

Measured: T/C

CC(=O)CC(=O)NCCN1CCN=C1C
inactive: dose: 100.0 mg/kg/injection, schedule: Q01DX009 (ip), vehicle: saline 109 % of control | dose: 200.0 mg/kg/injection, schedule: Q01DX009 (ip), vehicle: saline 116 % of control | dose: 400.0 mg/kg/injection, schedule: Q01DX009 (ip), vehicle: saline 110 % of control

COc1cc2cc3c4ccccc4cc[n+]3c(C)c2cc1OC (tested in a mixture with another compound)
inactive: dose: 5.0 mg/kg/injection, schedule: Q01DX009 (ip), vehicle: Klucel (hydroxypropylcellulose) (HPC) 99 % of control | dose: 10.0 mg/kg/injection, schedule: Q01DX009 (ip), vehicle: Klucel (hydroxypropylcellulose) (HPC) 99 % of control | dose: 20.0 mg/kg/injection, schedule: Q01DX009 (ip), vehicle: Klucel (hydroxypropylcellulose) (HPC) 95 % of control

Cc1ccc2c(C)c3c(ccc4ccccc43)c[n+]2c1
inactive: dose: 1.25 mg/kg/injection, schedule: Q01DX009 (ip), vehicle: saline 100 % of control | dose: 2.5 mg/kg/injection, schedule: Q01DX009 (ip), vehicle: saline with Tween-80 95 % of control | dose: 2.5 mg/kg/injection, schedule: Q01DX009 (ip), vehicle: saline 100 % of control | dose: 5.0 mg/kg/injection, schedule: Q01DX009 (ip), vehicle: saline with Tween-80 95 % of control | dose: 5.0 mg/kg/injection, schedule: Q01DX009 (ip), vehicle: saline 100 % of control | dose: 10.0 mg/kg/injection, schedule: Q01DX009 (ip), vehicle: saline 105 % of control

CCN(C(=O)Nc1cccc2ccccc12)c1ccccc1
inactive: [1] 102 % of control | [2] 88 % of control | dose: 400.0 mg/kg/injection, schedule: Q01DX009 (ip), vehicle: Klucel (hydroxypropylcellulose) (HPC) 91 % of control

CN(C)CCCN1c2ccc(O)cc2Sc2ccc(Cl)cc21
inactive: dose: 3.1 mg/kg/injection, schedule: Q01DX009 (ip), vehicle: other 92 % of control | [3] 117 % of control | [4] 124 % of control

Cc1cc(=O)n(C)c2ccccc12
inactive: [5] 90 % of control | [6] 90 % of control | [7] 90 % of control | dose: 50.0 mg/kg/injection, schedule: Q04DX003 (ip), vehicle: Klucel (hydroxypropylcellulose) (HPC) 107 % of control | [1] 90 % of control | dose: 100.0 mg/kg/injection, schedule: Q04DX003 (ip), vehicle: Klucel (hydroxypropylcellulose) (HPC) 102 % of control | dose: 200.0 mg/kg/injection, schedule: Q04DX003 (ip), vehicle: Klucel (hydroxypropylcellulose) (HPC) 102 % of control

CCCCS(=O)CC(CO)NC(=O)/C=C/c1c(C)[nH]c(=O)[nH]c1=O (centres undefined)
inactive: dose: 0.63 mg/kg/injection, schedule: Q01DX009 (ip), vehicle: water 104 % of control | dose: 1.25 mg/kg/injection, schedule: Q01DX009 (ip), vehicle: water 102 % of control | dose: 2.5 mg/kg/injection, schedule: Q01DX009 (ip), vehicle: water 104 % of control | dose: 5.0 mg/kg/injection, schedule: Q01DX009 (ip), vehicle: water 99 % of control | dose: 10.0 mg/kg/injection, schedule: Q01DX009 (ip), vehicle: water 95 % of control

O=C(O)c1cc2ccccc2o1
inactive: dose: 16.5 mg/kg/injection, schedule: Q01DX009 (ip), vehicle: saline with Tween-80 100 % of control | [8] 100 % of control | dose: 37.5 mg/kg/injection, schedule: Q01DX009 (ip), vehicle: saline with Tween-80 92 % of control | [3] 111 % of control | [4] 102 % of control

O=P(OCc1ccccc1)(OCc1ccccc1)C(Nc1ccccc1)c1ccccc1 (centres undefined)
inactive: [7] 97 % of control | [1] 90 % of control | [2] 90 % of control

O=C(CCCN1CCC(n2c(=O)[nH]c3ccccc32)CC1)c1ccc(F)cc1
inactive: dose: 0.78 mg/kg/injection, schedule: Q01DX009 (ip), vehicle: Klucel (hydroxypropylcellulose) (HPC) 121 % of control | dose: 3.12 mg/kg/injection, schedule: Q01DX009 (ip), vehicle: Klucel (hydroxypropylcellulose) (HPC) 86 % of control | dose: 6.25 mg/kg/injection, schedule: Q01DX009 (ip), vehicle: Klucel (hydroxypropylcellulose) (HPC) 92 % of control | [5] 89 % of control | [6] 89 % of control and 94 % of control

COC1C(O)CC(OC2CC(Oc3cc4cc5c(c(O)c4c(O)c3C)C(=O)[C@@H](OC3CC(OC4CC(OC6CC(C)(O)C(OC(C)=O)C(C)O6)C(O)C(C)O4)C(O)C(C)O3)[C@H]([C@H](OC)C(=O)[C@@H](O)[C@@H](C)O)C5)OC(C)C2OC(C)=O)OC1C (some centres undefined)
active: dose: 0.02 mg/kg/injection, schedule: Q01DX009 (ip), vehicle: saline 167 % of control | dose: 0.03 mg/kg/injection, schedule: Q01DX009 (ip), vehicle: saline 152 % of control | dose: 0.04 mg/kg/injection, schedule: Q01DX009 (ip), vehicle: saline 175 % of control | dose: 0.07 mg/kg/injection, schedule: Q01DX009 (ip), vehicle: saline 161 % of control | dose: 0.08 mg/kg/injection, schedule: Q01DX009 (ip), vehicle: saline 154 % of control | dose: 0.13 mg/kg/injection, schedule: Q01DX009 (ip), vehicle: saline 150 % of control | dose: 0.16 mg/kg/injection, schedule: Q01DX009 (ip), vehicle: Klucel (hydroxypropylcellulose) (HPC) 150 % of control and 157 % of control | dose: 0.16 mg/kg/injection, schedule: Q01DX009 (ip), vehicle: saline 152 % of control | dose: 0.25 mg/kg/injection, schedule: Q01DX009 (ip), vehicle: saline 152 % of control | dose: 30.0 micrograms/kg/injection, schedule: Q01DX009 (ip), vehicle: water 159 % of control
inactive: dose: 0.01 mg/kg/injection, schedule: Q01DX009 (ip), vehicle: Klucel (hydroxypropylcellulose) (HPC) 111 % of control | dose: 0.02 mg/kg/injection, schedule: Q01DX009 (ip), vehicle: Klucel (hydroxypropylcellulose) (HPC) 111 % of control | dose: 0.04 mg/kg/injection, schedule: Q01DX009 (ip), vehicle: Klucel (hydroxypropylcellulose) (HPC) 123 % of control | dose: 0.32 mg/kg/injection, schedule: Q01DX009 (ip), vehicle: saline 94 % of control | dose: 3.8 micrograms/kg/injection, schedule: Q01DX009 (ip), vehicle: water 111 % of control | dose: 7.5 micrograms/kg/injection, schedule: Q01DX009 (ip), vehicle: water 109 % of control | dose: 15.0 micrograms/kg/injection, schedule: Q01DX009 (ip), vehicle: Klucel (hydroxypropylcellulose) (HPC) 109 % of control | dose: 15.0 micrograms/kg/injection, schedule: Q01DX009 (ip), vehicle: saline 94 % of control | dose: 30.0 micrograms/kg/injection, schedule: Q01DX009 (ip), vehicle: Klucel (hydroxypropylcellulose) (HPC) 96 % of control | dose: 30.0 micrograms/kg/injection, schedule: Q01DX009 (ip), vehicle: saline 88 % of control | dose: 60.0 micrograms/kg/injection, schedule: Q01DX009 (ip), vehicle: saline 100 % of control | dose: 120.0 micrograms/kg/injection, schedule: Q01DX009 (ip), vehicle: Klucel (hydroxypropylcellulose) (HPC) 109 % of control | dose: 120.0 micrograms/kg/injection, schedule: Q01DX009 (ip), vehicle: saline 94 % of control | dose: 240.0 micrograms/kg/injection, schedule: Q01DX009 (ip), vehicle: saline 100 % of control

C=CCOCC(O)CN(CCC)CCC (centres undefined)
inactive: dose: 12.5 mg/kg/injection, schedule: Q01DX009 (ip), vehicle: saline with Tween-80 114 % of control | [8] 112 % of control | [3] 114 % of control

CCCC(C(=O)OCCN(CC)CC)(c1ccccc1)c1ccccc1
inactive: dose: 3.12 mg/kg/injection, schedule: Q01DX009 (ip), vehicle: saline 95 % of control | dose: 6.25 mg/kg/injection, schedule: Q01DX009 (ip), vehicle: saline 102 % of control | dose: 12.5 mg/kg/injection, schedule: Q01DX009 (ip), vehicle: saline 100 % of control | dose: 25.0 mg/kg/injection, schedule: Q01DX009 (ip), vehicle: saline 97 % of control

CC1CC(C)(C)C(C[NH-])C1[NH-].[Cl][Pt+2][Cl] (centres undefined)
active: dose: 4.0 mg/kg/injection, schedule: Q01DX009 (ip), vehicle: other 153 % of control | dose: 8.0 mg/kg/injection, schedule: Q01DX009 (ip), vehicle: other 150 % of control
inactive: dose: 16.0 mg/kg/injection, schedule: Q01DX009 (ip), vehicle: other 112 % of control

CC1(C)N=C(N)N=C(N)N1c1ccc(OCC(=O)Nc2ccc(S(=O)(=O)F)cc2)c(Cl)c1
inactive: dose: 50.0 mg/kg/injection, schedule: Q04DX003 (ip), vehicle: saline 107 % of control | dose: 100.0 mg/kg/injection, schedule: Q04DX003 (ip), vehicle: saline 124 % of control
